Experiment [1] deals with ovariectomized rats. As to the kind of experiment: Effect on ovariectomized rats: biochemical parameter of urine (bone resorption marker). It is filed as in vivo, Female Wistar-Imamichi rats. Conditions: for D-pyr/Cre: OVX rats, urine collected after the final administration, mean ± standard deviation, n = 7, control OVX 11.83 ± 2.02. The text has this:
(§1) Female Wistar-Imamichi rats were subjected to ovariectomy (OVX). As test drugs, use was made of L-N-6-(1-iminoethyl)lysine hydrochloride (NIL) and S-ethylisothiourea (EIT) which are known as selective iNOS inhibitors. […] To confirm the validity of the test system, 17-β-estradiol (βE2) was also employed.
(§2) One day after OVX, the rats were divided into 7 groups each having 7 animals. The administration of the drug was started on the day 4 after OVX. As a control, a sham group (7 animals) was also employed. NIL was orally administered in a dose of 0.1 or 0.02 mg/kg (0.1 ml per 100 g of body weight) 5 times per week for 10 weeks.
According to Dunnet's multiple comparison method, the statistically significant differences from the control ovariectomy group are expressed as follows: **: p < 0.01, ***: p < 0.001.
Number of animals/group = 7. Mean ± standard deviation.

Experiment [2] concerns ovariectomized rats. As to the kind of experiment: Effect on ovariectomized rats: lumbar bone density. Type of experiment: in vivo, Female Wistar-Imamichi rats. Particulars: sham group = 100%, control OVX group 85.2%.
From the text: as §1, §2
In this graph, the data are expressed in "mean ± standard deviation". According to Dunnet's multiple comparison method, the statistically significant differences from the control ovariectomy group are expressed as follows: • **: p < 0.01, ***: p < 0.001.

In experiment [3] the test system is eNOS/iNOS. Conditions: cited from earlier work.
Experiment [4] deals with nNOS/iNOS. Conditions: cited from earlier work.
Experiment [5] relates to cNOS/iNOS. Conditions: cited from earlier work.

Structures can show the parent of a compound that is named as a salt. Marks after values point to notes of the source that are not given here.

The values that follow come from patent EP1004317A1, “REMEDIES FOR DISEASES ASSOCIATED WITH BONE RESORPTION” (CHUGAI SEIYAKU KABUSHIKI KAISHA, priority 1997, dated 1999).

On to `CCSC(=N)N` [EIT, S-ethylisothiourea], for which, in experiment [1] (EIT administration group, no statistically significant difference), the “excretion of deoxypyridinoline (D-pyr) versus control OVX group (in words)” value is listed as “a tendency toward decrease”. Also, the D-pyr/Cre in experiment [1] (dose 0.1 mg/kg) amounted to 9.95 ± 1.71. The compound also had a lumber bone density in experiment [2] (EIT administration group, 24 hours after the final administration, p < 0.01) of 92.6%. Further, the “eNOS/iNOS (NOS inhibitory activity expressed in the ratio of IC50)” value in experiment [3] is 28.46. Moreover, in experiment [4], the “nNOS/iNOS (NOS inhibitory activity expressed in the ratio of IC50)” value is listed as 19.23.
On to `C[C@]12CC[C@@H]3c4ccc(O)cc4CC[C@H]3[C@@H]1CC[C@@H]2O` [βE2, 17-β-estradiol], for which the D-pyr/Cre in experiment [1] (dose 0.02 mg/kg) was 4.16 ± 1.45**.
Regarding `CC(=N)NCCCC[C@H](N)C(=O)O` [NIL, L-N-6-(1-iminoethyl)lysine hydrochloride], in experiment [5], the “cNOS/iNOS (NOS inhibitory activity expressed in the ratio of IC50)” value is listed as 28. Further, the “excretion of deoxypyridinoline (D-pyr), acceleration versus control OVX group (in words)” value in experiment [1] (0.02 mg/kg, p < 0.01) is recorded as “significantly inhibited”. Moreover, the values for the D-pyr/Cre in experiment [1] (dose 0.02 mg/kg) and in experiment [1] (dose 0.1 mg/kg) were 8.70 ± 1.59** and 10.43 ± 1.15, respectively. In addition, the lumber bone density in experiment [2] (0.02 mg/kg orally, 5 times per week for 10 weeks) turned out to be 86.8%; in experiment [2] (0.1 mg/kg orally, 5 times per week for 10 weeks), 90.2%.
